# Like-named read-outs stand apart in the source and are kept apart here.
# What was measured:
# GST-PERK enzyme = target: T1, GST-PERK enzyme (Homo sapiens, UniProt Q9NZJ5); experiment: PERK enzyme assay; type: biochemical; conditions: biotin-eIF2α substrate, 60 minutes
# T1 sequence (Q9NZJ5 30-1116): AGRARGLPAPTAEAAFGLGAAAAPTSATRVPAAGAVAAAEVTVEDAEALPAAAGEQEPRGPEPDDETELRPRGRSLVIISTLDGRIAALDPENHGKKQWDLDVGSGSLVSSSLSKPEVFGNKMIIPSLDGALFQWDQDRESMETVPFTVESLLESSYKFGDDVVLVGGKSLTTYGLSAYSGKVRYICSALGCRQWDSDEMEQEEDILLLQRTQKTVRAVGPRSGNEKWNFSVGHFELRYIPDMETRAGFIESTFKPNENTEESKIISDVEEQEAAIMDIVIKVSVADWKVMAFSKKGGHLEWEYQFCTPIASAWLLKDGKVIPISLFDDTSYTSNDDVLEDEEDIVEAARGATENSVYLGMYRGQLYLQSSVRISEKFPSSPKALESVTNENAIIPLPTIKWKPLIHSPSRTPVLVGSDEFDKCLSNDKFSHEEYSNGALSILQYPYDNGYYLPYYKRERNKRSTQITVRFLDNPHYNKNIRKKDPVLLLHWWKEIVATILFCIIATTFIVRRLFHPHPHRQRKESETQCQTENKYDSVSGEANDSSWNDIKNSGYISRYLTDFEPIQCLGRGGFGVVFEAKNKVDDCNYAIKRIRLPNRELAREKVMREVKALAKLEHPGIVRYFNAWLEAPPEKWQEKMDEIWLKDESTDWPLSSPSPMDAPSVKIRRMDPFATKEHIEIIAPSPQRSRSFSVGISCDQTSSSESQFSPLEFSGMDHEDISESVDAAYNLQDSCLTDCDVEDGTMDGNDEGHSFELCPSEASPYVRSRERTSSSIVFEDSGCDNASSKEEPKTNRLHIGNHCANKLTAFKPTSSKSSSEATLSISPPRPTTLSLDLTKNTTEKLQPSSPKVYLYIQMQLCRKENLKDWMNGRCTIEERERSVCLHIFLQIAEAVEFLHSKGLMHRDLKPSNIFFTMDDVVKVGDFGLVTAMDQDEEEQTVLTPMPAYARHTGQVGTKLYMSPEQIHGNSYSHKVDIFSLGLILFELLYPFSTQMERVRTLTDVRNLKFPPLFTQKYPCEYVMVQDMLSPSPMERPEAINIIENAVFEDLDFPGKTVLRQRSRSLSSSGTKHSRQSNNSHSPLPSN
# Method: Example 61: PERK Enzyme Assay
# Compounds of the invention were assayed for PERK enzyme inhibitory activity with modifications to previously reported conditions (Axten et al. J. Med. Chem., 2012, 55, 7193-7207). Briefly, various concentrations of compounds (maximum 1% DMSO) were dispensed into 384-well plates containing GST-PERK enzyme. ATP and biotin-elF2α were added and after 60 minutes the reaction was quenched. After 2 hrs, a fluorescence plate reader was used to measure inhibition and pIC50s were calculated. The activity of compound 1 was determined at an ATP concentration=5 μM. For compounds 2-20 the PERK activity was determined at ATP concentration=500 μM ATP.
# prion infected mice = conditions: cited from earlier work
# [1] = 500 μM ATP, read-out: average PERK Enzyme (500 μM ATP) pIC50 (converted)
Structure (SMILES),IC50 (GST-PERK enzyme; [1]) [nM],also measured
"Cn1cc(-c2ccc3cc(Cc4ccccc4)ncc3c2)c2c(N)ncnc21 [Example 1, 5-(3-Benzylisoquinolin-7-yl)-7-methyl-7H-pyrrolo[2,3-d]pyrimidin-4-amine]",–,"IC50 (GST-PERK enzyme; 5 μM ATP, read-out: average PERK Enzyme (5 μM ATP) pIC50 (converted)): 15.8 nM"
"Cn1cc(-c2ccc3cc(Cc4cc(F)cc(F)c4)ncc3c2F)c2c(N)ncnc21 [Example 4, 5-(3-(3,5-Difluorobenzyl)-8-fluoroisoquinolin-7-yl)-7-methyl-7H-pyrrolo[2,3-d]pyrimidin-4-amine]",251,–
"CCn1cc(-c2ccc3cc(Cc4cc(F)cc(F)c4)ncc3c2F)c2c(N)ncnc21 [Example 6, 5-(3-(3,5-difluorobenzyl)-8-fluoroisoquinolin-7-yl)-7-ethyl-7H-pyrrolo[2,3-d]pyrimidin-4-amine]",158,–
"Cc1cc(C)cc(C(=O)c2cc3ccc(-c4cn(C)c5ncnc(N)c45)cc3cn2)c1 [Example 15, (7-(4-amino-7-methyl-7H-pyrrolo[2,3-d]pyrimidin-5-yl)isoquinolin-3-yl)(3,5-dimethylphenyl)methanone]",> 3980,–
"Cn1cc(-c2ccc3cc(Cc4cc(F)ccc4F)ncc3c2F)c2c(N)ncnc21 [Example 17, 5-(3-(2,5-difluorobenzyl)-8-fluoroisoquinolin-7-yl)-7-methyl-7H-pyrrolo[2,3-d]pyrimidin-4-amine]",1000,–
"Cn1cc(-c2ccc3cc(Cc4cc(F)cc(C(F)(F)F)c4)ncc3c2F)c2c(N)ncnc21 [Example 18, 5-(8-fluoro-3-(3-fluoro-5-(trifluoromethyl)benzyl)isoquinolin-7-yl)-7-methyl-7H-pyrrolo[2,3-d]pyrimidin-4-amine]",> 3980,–
"Cn1cc(-c2ccc3cc(Cc4cccc(C(F)(F)F)c4)ncc3c2F)c2c(N)ncnc21 [Example 19, 5-(8-fluoro-3-(3-(trifluoromethyl)benzyl)isoquinolin-7-yl)-7-methyl-7H-pyrrolo[2,3-d]pyrimidin-4-amine]",> 3980,–
"Nc1ncnc2c1c(-c1ccc3cc(Cc4cc(F)cc(F)c4)ncc3c1F)cn2CC(F)(F)F [Example 23, 5-(3-(3,5-difluorobenzyl)-8-fluoroisoquinolin-7-yl)-7-(2,2,2-trifluoroethyl)-7H-pyrrolo[2,3-d]pyrimidin-4-amine]",> 3980,–
"Cc1nc(N)c2c(-c3ccc4cc(Cc5cc(F)cc(F)c5)ncc4c3F)cn(C)c2n1 [Example 25, 5-(3-(3,5-difluorobenzyl)-8-fluoroisoquinolin-7-yl)-2,7-dimethyl-7H-pyrrolo[2,3-d]pyrimidin-4-amine]",> 3980,–
"Cc1nc(N)c2c(-c3ccc4cc(Cc5cc(F)cc(F)c5)ncc4c3F)cn(C3CC3)c2n1 [Example 28, 7-cyclopropyl-5-(3-(3,5-difluorobenzyl)-8-fluoroisoquinolin-7-yl)-2-methyl-7H-pyrrolo[2,3-d]pyrimidin-4-amine]",2510,–
"Nc1ncnc2c1c(-c1ccc3cc(Cc4cc(F)cc(F)c4)ncc3c1F)nn2C1CC1 [Example 29, 1-cyclopropyl-3-(3-(3,5-difluorobenzyl)-8-fluoroisoquinolin-7-yl)-1H-pyrazolo[3,4-d]pyrimidin-4-amine]",> 3980,–
"Cc1ccccc1Cc1cc2ccc(-c3cn(C4CC4)c4ncnc(N)c34)c(F)c2cn1 [Example 38, 7-cyclopropyl-5-(8-fluoro-3-(2-methylbenzyl)isoquinolin-7-yl)-7H-pyrrolo[2,3-d]pyrimidin-4-amine]",12.6,–
"Nc1ncnc2c1c(-c1ccc3cc(Cc4cc(C(F)(F)F)ccc4F)ncc3c1F)cn2C1CC1 [Example 41, 7-cyclopropyl-5-(8-fluoro-3-(2-fluoro-5-(trifluoromethyl)benzyl)isoquinolin-7-yl)-7H-pyrrolo[2,3-d]pyrimidin-4-amine]",100,–
"CN(C)CCn1cc(-c2ccc3cc(Cc4cc(F)cc(F)c4)ncc3c2F)c2c(N)ncnc21 [Example 47, 5-(3-(3,5-difluorobenzyl)-8-fluoroisoquinolin-7-yl)-7-(2-(dimethylamino)ethyl)-7H-pyrrolo[2,3-d]pyrimidin-4-amine]",1580,–
"Nc1ncnc2c1c(-c1ccc3cc(Cc4cccc(Cl)c4F)ncc3c1F)cn2C1CC1 [Example 51, 5-(3-(3-chloro-2-fluorobenzyl)-8-fluoroisoquinolin-7-yl)-7-cyclopropyl-7H-pyrrolo[2,3-d]pyrimidin-4-amine]",3.16,–
"Nc1ncnc2c1c(-c1ccc3cc(Cc4cncc(F)c4)ncc3c1F)cn2C1CC1 [Example 53, 7-cyclopropyl-5-(8-fluoro-3-((5-fluoropyridin-3-yl)methyl)isoquinolin-7-yl)-7H-pyrrolo[2,3-d]pyrimidin-4-amine]",631,–
"Nc1ncnn2ccc(-c3ccc4cc(Cc5cc(F)cc(F)c5)ncc4c3F)c12 [Example 58, 5-(3-(3,5-difluorobenzyl)-8-fluoroisoquinolin-7-yl)pyrrolo[2,1-f][1,2,4]triazin-4-amine]",> 3980,–
"Cn1cc(-c2ccc3c(c2)CCN3C(=O)Cc2cccc(C(F)(F)F)c2)c2c(N)ncnc21 [GSK2606414, 7-methyl-5-(1-{[3-(trifluoromethyl)phenyl]acetyl}-2,3-dihydro-1H-indol-5-yl)-7H-pyrrolo[2,3-d]pyrimidin-4-amine]",–,neuroprotective effect and clinical signs of disease (prion infected mice): provide a neuroprotective effect and prevent clinical signs of disease

# From patent publication US20190241573A1, “ISOQUINOLINE DERIVATIVES AS PERK INHIBITORS” (GlaxoSmithKline Intellectual Property Development Limited, priority 2016, published 2019)
